Data reported in patent publication US11058673B2, “Dosage regimen of MDM2 inhibitor for treating cancers” (DAIICHI SANKYO COMPANY, LIMITED, priority 2015, dated 2021).
Like-named read-outs stand apart in the source and are kept apart here.

What was measured:
[1] = system: advanced solid tumor or lymphoma; assay: Phase 1 clinical study: tumor response (RECIST v1.1) and progression free survival, overall population; assay type: in vivo, human
Protocol: (§1) • 1. Has a histologically or cytologically documented advanced solid tumor or lymphoma that has relapsed from or is refractory to standard treatment, or for which no standard treatment is available. • 2. Man or woman≥18 years old. • 3. Has an Eastern Cooperative Oncology Group (ECOG) performance status 0-1. • 4. Has adequate bone marrow function, adequate renal function, adequate hepatic function, and adequate blood clotting function.
(§2) Tumor assessment Tumor assessment was performed at baseline, within every 2 cycles while the subject remained on study for the first 9 cycles and then every 3 cycles thereafter (start of Cycles 3, 5, 7, and 9, then Cycles 12, 15, etc.).
(§3) Tumor Response Response assessment was performed according to the Schedule of Events or if disease progression was suspected. Radiographic assessment included computerized tomography (CT) of all affected sites. In addition, subjects with lymphoma underwent a (^18F) fluorodeoxyglucose-positron emission tomography FDG-PET scan. Tumor responses were assessed by the physicians according to RECIST 1.1 criteria for subjects with solid tumors and revised IWG criteria for subjects with lymphoma. Descriptive statistics for the greatest percent change in the sum of longest dimensions (SLD) of measurable tumors were provided. A waterfall plot of the greatest percent change from screening in the SLD for each subject was presented for subjects with advanced solid malignancies and lymphomas. In addition, descriptive statistics for FDG-PET scans were provided for lymphoma subjects according to revised IWG criteria.

Non-Liposarcoma = assay: Phase 1 clinical study: progression free survival, non-liposarcoma subjects; assay type: in vivo, human; conditions: Non-Liposarcoma (N = 14)
Protocol: as §1, §2, §3

[2] = assay type: in vivo, human; conditions: for maximum tolerated dose (MTD): oral
Protocol: (§4) Dosage regimen Compound 2 was administered as an oral capsule comprising a pharmaceutically acceptable carrier (diluting agent, plasticizer, disintegrator and lubricant). Compound 2 was administered to the subjects once daily on Days 1 to 21 of a 28-day cycle (QD21/28). An alternative drug administration schedule was considered after establishing the maximum tolerated dose (MTD) of Compound 2 in solid tumor and/or lymphoma subjects using the above schedule, and upon review of the human safety. Subjects were administered Compound 2 in fasting conditions by avoiding food for 2 hours before and 1 hour after drug administration. Dose-escalation of Compound 2 to determine the MTD was guided by the modified continuous reassessment method (mCRM) using a Bayesian logistic regression model (BLRM) following escalation with overdose control (EWOC) principle. Dose escalation began in subjects with advanced solid tumors or lymphomas with a starting dose of Compound 2 at 15 mg/day based on the Highest Non-Severely Toxic Dose (HNSTD) of 3 mg/kg in dogs.
Dose Limiting Toxicity Definition A DLT was defined as any treatment-emergent adverse event (TEAE) not attributable to disease or disease-related processes that occurred during the observation period (Cycle 1) in each dose-level cohort and was grade 3 or higher according to NCI CTCAE, version 4. Subjects who were unable to complete at least 75% of the prescribed doses (i.e., 16 days) of Compound 2 in the first 21 days as a result of nondisease-related≥grade 2 adverse event (AE) were considered to have a DLT.
Treatment Arms In this open-label, single-arm, dose escalation study, each subject received Compound 2 orally once daily on Days 1 to 21 of a 28-day cycle.
Safety Parameters The safety profile was based on AEs, physical examination findings, vital sign measurements, clinical laboratory measurements, and ECG recordings. All subjects receiving at least 1 dose of Compound 2 were included in the safety analyses.

[3] = Highest Non-Severely Toxic Dose in dogs; assay type: in vivo
Protocol: as §4

Liposarcoma = assay: Phase 1 clinical study: progression free survival, liposarcoma subjects; assay type: in vivo, human; conditions: Liposarcoma (N = 13)
Protocol: as §1, §2, §3

[4] = Overall (N = 27), Kaplan-Meier estimate

Compound: CC1(C)CCC2(CC1)N[C@@H](C(=O)N[C@@H]1CC[C@@H](C(N)=O)OC1)[C@H](c1ccnc(Cl)c1F)[C@]21C(=O)Nc2cc(Cl)ccc21.Cc1ccc(S(=O)(=O)O)cc1 [Compound 2, (3′R,4′S,5′R)—N-[(3R,6S)-6-carbamoyltetrahydro-2H-pyran-3-yl]-6″-chloro-4′-(2-chloro-3-fluoropyridin-4-yl)-4,4-dimethyl-2″-oxo-1″,2″-dihydrodispiro[cyclohexane-1,2′-pyrrolidine-3′,3″-indole]-5′-carboxamide mono(4-methylbenzenesulfonate) monohydrate]
- Subjects without Events (Censored) (%) ([1]; Overall (N = 27)): (55.6) %
- Progression-Free Survival, Median [1, 4]: 5.72 months
- Rate (%) of Being Alive Without Progresion at Least 3 months [1, 4]: 74.5%
- Rate (%) of Being Alive Without Progresion at Least 6 months [1, 4]: 47.4%
- Rate (%) of Being Alive Without Progresion at Least 9 months [1, 4]: 29.7%
- Rate (%) of Being Alive Without Progresion at Least 12 months [1, 4]: 29.7%
- Subjects with Events (%) ([1]; PFS events, Overall (N = 27)): (44.4) %
- subjects with stable disease (SD) as the best tumor response ([1]; RECIST v1.1, out of 23 evaluable subjects): 21 subjects
- subjects with >10% tumor shrinkage ([1]; of 23 evaluable subjects): 3 subjects
- Subjects without Events (Censored) (%) (Non-Liposarcoma): (35.7) %
- Progression-Free Survival, Median (Non-Liposarcoma; Kaplan-Meier estimate): 4.04 months
- Rate (%) of Being Alive Without Progresion at Least 3 months (Non-Liposarcoma; Kaplan-Meier estimate): 58.4%
- Rate (%) of Being Alive Without Progresion at Least 6 months (Non-Liposarcoma; Kaplan-Meier estimate): 23.4%
- Rate (%) of Being Alive Without Progresion at Least 9 months (Non-Liposarcoma; Kaplan-Meier estimate): 11.7%
- Rate (%) of Being Alive Without Progresion at Least 12 months (Non-Liposarcoma; Kaplan-Meier estimate): 11.7%
- Subjects with Events (%) (Non-Liposarcoma; PFS events): (64.3) %
- TEAE anemia ([2]; human, in vivo): 38.2%
- TEAE constipation ([2]; human, in vivo): 23.5
- TEAE decreased appetite ([2]; human, in vivo): 50.0%
- TEAE diarrhea ([2]; human, in vivo): 35.3%
- TEAE dysgeusia ([2]; human, in vivo): 20.6%
- TEAE dyspnoea ([2]; human, in vivo): 26.5%
- TEAE fatigue ([2]; human, in vivo): 52.9%
- TEAE grade 3 or higher in severity ([2]; human, in vivo): 55.9%
- TEAE hyperglycemia ([2]; human, in vivo): 29.4%
- TEAE hypoalbuminemia ([2]; human, in vivo): 32.4%
- TEAE nausea ([2]; human, in vivo): 64.7%
- TEAE neutropenia ([2]; human, in vivo): 17.6%
- TEAE peripheral edema ([2]; human, in vivo): 17.6%
- TEAE thrombocytopenia ([2]; human, in vivo): 32.4%
- TEAE vomiting ([2]; human, in vivo): 35.3%
- Treatment emergent adverse events (TEAE) of any grade at any treatment cycle irrespective of causality ([2]; human, in vivo): 97.1%
- most common drug-related TEAEs ([2]; human, in vivo): hematological (thrombocytopenia, anemia, neutropenia), gastrointestinal (nausea, vomiting and diarrhea), and fatigue
- total subjects who experienced DLTs ([2]; human, in vivo): 6 subjects
- maximum tolerated dose (MTD) ([2]; QD 21/28 schedule): 120 mg
- maximum tolerated dose (MTD) ([2]; QD 28/28 schedule): 90 mg
- dose tolerated ([2]; patients with hematological malignancies): 160 mg
- Highest Non-Severely Toxic Dose (HNSTD) [3]: 3 mg/kg
- Subjects without Events (Censored) (%) (Liposarcoma): (76.9) %
- Rate (%) of Being Alive Without Progresion at Least 3 months (Liposarcoma; Kaplan-Meier estimate): 91.7%
- Rate (%) of Being Alive Without Progresion at Least 6 months (Liposarcoma; Kaplan-Meier estimate): 76.4%
- Rate (%) of Being Alive Without Progresion at Least 9 months (Liposarcoma; Kaplan-Meier estimate): 57.3%
- Rate (%) of Being Alive Without Progresion at Least 12 months (Liposarcoma; Kaplan-Meier estimate): 57.3%
- Subjects with Events (%) (Liposarcoma; PFS events): (23.1) %
